We go through 26 compounds from patent US20230079107A1, “COMPOSITIONS AND METHODS FOR THE TREATMENT OF HUMAN IMMUNODEFICIENCY VIRUS” (Cidara Therapeutics, Inc., priority 2019, published 2023).

Like-named read-outs stand apart in the source and are kept apart here.

What all share (type): cell-based
A short description of one data set: in vitro. Also on record: TC50: unit not given beside the values. To be noted: human. The procedure: (§1) In these studies, cytotoxicity was also evaluated (TC50). Test materials were derived by measuring the reduction of the tetrazolium dye XTT (2,3-bis(2-methoxy-4-nitro-5-sulfophenyl)-5-[(phenylamino)carbonyl]-2H-tetrazolium hydroxide). XTT in metabolically active cells is metabolized by the mitochondrial enzyme NADPH oxidase to a soluble formazan product. XTT solution was prepared daily as a stock of 1 mg/mL in RPMI-1640 without additives. Phenazine methosulfate (PMS) solution was prepared at 0.15 mg/mL in DPBS and stored in the dark at −20° C. XTT/PMS stock was prepared immediately before use by adding 40 μL of PMS per mL of XTT solution. 50 μL of XTT/PMS was added to each well of the plate and the plate incubated for 4 hours at 37° C. The 4 hour incubation has been empirically determined to be within the linear response range for XTT dye reduction with the indicated numbers of cells for each assay. The plates were sealed and inverted several times to mix the soluble formazan product and the plate was read at 450 nm (650 nm reference wavelength) with a Molecular Devices SpectraMax Plus 384 96 well plate format spectrophotometer.
as §1, with “Fifty L (50 μL)” for “50 μL”
as §1, with “studies” for “studies,”, “Fifty L (50 μL)” for “50 μL”
(§2) In these studies, cytotoxicity was also evaluated (TC50). Test materials were derived by measuring the reduction of the tetrazolium dye XTT (2,3-bis(2-methoxy-4-nitro-5-sulfophenyl)-5-[(phenylamino)carbonyl]-2H-tetrazolium hydroxide). XTT in metabolically active cells is metabolized by the mitochondrial enzyme NADPH oxidase to a soluble formazan product. XTT solution was prepared daily as a stock of 1 mg/mL in RPMI-1640 without additives.

Data set [1] concerns HeLa-CD4-LTR-β-Gal and HL2/3 cells (cell viability). Kind of data set: in vitro. Also noted: TC50: unit not given beside the values. To be noted: Example 36, Table 9, XTT. The protocol: as §1
as §1, with “Fifty L (50 μL)” for “50 μL”
as §1, with “studies” for “studies,”, “Fifty L (50 μL)” for “50 μL”
as §2
On the technique in general: Tetrazolium dyes change colour on reduction, which living cells bring about.

For data set [2], the target named is cell-cell fusion of HeLa-CD4-LTR-β-Gal and HL2/3 cells mediated by gp120 and CD4 interaction (UniProt P04578).
Setting [3] is: Example 19, Table 6, Run 3, XTT, read-out: TC50 [μM] Run 3.
Where [4] appears, read: Example 33, Table 7, XTT, read-out: TC50 (nM) (Tox).
Setting [5] is: Example 11, Table 5, XTT, read-out: TC50 (the source's name).
[6] abbreviates: Example 19, Table 6, Run 1, XTT, read-out: TC50 [μM] Run 1.
[7] abbreviates: Example 19, Table 6, Run 2, XTT, read-out: TC50 [μM] Run 2.

Take `C#CCOCCOCCOCCOCCC(=O)N[C@@H](CS(=O)(=O)O)C(=O)N1CCN(CCNC(=O)c2ncn(-c3ncc(OC)c4c(C(=O)C(=O)N5CCC(=C(C#N)c6ccccc6)CC5)c[nH]c34)n2)CC1` [Int-14]: the CC50 in the data set “in vitro” (setting [3]) is more than 10 µM.
As for `C#CCOCCOCCOCCOCCN(CCCO)CCCN(CCCO)CCCNC(=O)c1ncn(-c2ncc(OC)c3c(C(=O)C(=O)N4CCC(=C(C#N)c5ccccc5)CC4)c[nH]c23)n1` [Int-26], in data set [1], the TC50 is given as more than 2000.
Take `C#CCOCCOCCOCCOCCNC(=O)c1ncn(-c2ncc(OC)c3c(C(=O)C(=O)N4CCN(C(=O)c5ccccc5)CC4)c[nH]c23)n1` [Int-20]: the CC50 in the data set “in vitro” (setting [4]) was more than 0.5 µM.
With `C#CCOCCOCCOCCOCCN1CCN(CCNC(=O)c2ncn(-c3ncc(OC)c4c(C(=O)C(=O)N5CCC(=C(C#N)c6ccccc6)CC5)c[nH]c34)n2)CC1` [Int-16], in the data set “in vitro” (setting [3]), the CC50 was more than 10 µM.
`C#CCOCCOCCOCCOCCNC(=O)COCc1ncn(-c2ncc(OC)c3c(C(=O)C(=O)N4CCN(C(=O)c5ccccc5)CC4)c[nH]c23)n1` [Int-5]: the CC50 in “in vitro” (setting [5]) and in the data set “in vitro” (setting [6]) was more than 0.5 µM throughout.
In the case of `C#CCOCCOCCOCCC1CCN(CCNC(=O)c2ncn(-c3ncc(OC)c4c(C(=O)C(=O)N5CCC(=C(C#N)c6ccccc6)CC5)c[nH]c34)n2)CC1` [Int-11], in “in vitro” (setting [6]), the CC50 is more than 10 µM.
In the case of `C#CCOCCOCCOCCOCCC(=O)NCc1ncn(-c2ncc(OC)c3c(C(=O)C(=O)N4CCN(C(=O)c5ccccc5)CC4)c[nH]c23)n1` [Int-7], the CC50 in “in vitro” (setting [5]) and in “in vitro” (setting [6]) was more than 0.5 µM throughout.
Regarding `C#CCOCCOCCOCCOCCNC(=O)c1csc(-c2ncc(OC)c3c(C(=O)C(=O)N4CCN(C(=O)c5ccccc5)CC4)c[nH]c23)n1` [Int-9], the CC50 in the data set “in vitro” (setting [5]) and in the data set “in vitro” (setting [6]) was more than 10 µM each time.
On to `C#CCOCCOCCOCCOCCN1CCN(CCCN2CCN(CCNC(=O)c3ncn(-c4ncc(OC)c5c(C(=O)C(=O)N6CCC(=C(C#N)c7ccccc7)CC6)c[nH]c45)n3)CC2)CC1` [Int-19], for which, in the data set “in vitro” (setting [4]), the CC50 was more than 0.5 µM.
Consider `C#CCOCCOCCOCCOCCC(=O)N(CCCNC(=O)CCOCCNC(=O)c1ncn(-c2ncc(OC)c3c(C(=O)C(=O)N4CCC(=C(C#N)c5ccccc5)CC4)c[nH]c23)n1)C(CO)(CO)CO` [Int-12], for which the CC50 in the data set “in vitro” (setting [3]) was more than 10 µM.
Regarding `C#CCOCCOCCOCCOCCC(=O)N(CC(=O)NCCOCCOCCOCCOCCOCCOCCOCCOCCOCCOCCOCCOC)CC(=O)NCCn1cc(COCCOCCOCCOCCNC(=O)c2ncn(-c3ncc(OC)c4c(C(=O)C(=O)N5CCC(=C(C#N)c6ccccc6)CC5)c[nH]c34)n2)nn1` [Int-25], in “in vitro” (setting [4]), the CC50 is more than 0.5 µM. This compound gave a TC50 in data set [1] of more than 2000.
Turning to `C#CCOCCOCCOCCOCCOc1cnc(-n2cnc(C)n2)c2[nH]cc(C(=O)C(=O)N3CCN(C(=O)c4ccccc4)CC3)c12` [Int-8], the CC50 in the data set “in vitro” (setting [5]) and in “in vitro” (setting [6]) was more than 10 µM each time.
Take `C#CCOCCOCCOCCOCCC(=O)N(CCCNC(=O)c1ncn(-c2ncc(OC)c3c(C(=O)C(=O)N4CCC(=C(C#N)c5ccccc5)CC4)c[nH]c23)n1)CCS(=O)(=O)O` [Int-15]: the CC50 in the data set “in vitro” (setting [3]) is more than 10 µM.
Turning to `C#CCOCCOCCOCCOCCN1CCN(CCCNC(=O)c2ncn(-c3ncc(OC)c4c(C(=O)C(=O)N5CCC(=C(C#N)c6ccccc6)CC5)c[nH]c34)n2)CC1` [Int-18], the CC50 in “in vitro” (setting [4]) was more than 0.5 µM. Besides, in data set [1], the TC50 is given as more than 2000.
In turn, `C#CCOCCOCCOCCOCCN1CCN(CCCNC(=O)c2ncn(-c3ncc(OC)c4c(C(=O)C(=O)N5CCC(=C(C#N)c6ccccn6)CC5)c[nH]c34)n2)CC1` [Int-27] came in with a TC50 in data set [1] of more than 2000.
In the case of `COc1cc(-c2ccc(/N=N/c3ccc4c(S(=O)(=O)O)cc(S(=O)(=O)O)c(N)c4c3O)c(OC)c2)ccc1/N=N/c1ccc2c(S(=O)(=O)O)cc(S(=O)(=O)O)c(N)c2c1O` [CSB, Chicago Sky Blue, reference compound], the CC50 in the data set “in vitro” (setting [5]), in “in vitro” (setting [6]), in “in vitro” (setting [7]), in “in vitro” (setting [3]) and in “in vitro” (setting [4]) was more than 10 µM each time.
Consider `C#CCOCCOCCOCCOCCNC(=O)c1ncn(-c2ncc(OC)c3c(C(=O)C(=O)N4CCC(=C(C#N)c5ccccc5)CC4)c[nH]c23)n1` [Int-2], for which the “fusion inhibition activity, in words” value in data set [2] was “highly active”. Besides, the CC50 in “in vitro” (setting [7]) and in “in vitro” (setting [3]) was more than 10 µM in each case.
As to enfuvirtide, in “in vitro” (setting [4]), the CC50 is more than 1 µM. Moreover, the TC50 in data set [1] is on record as >1,000.
For `C#CCOCCOCCOCCOCC(O)CNC(=O)c1nc(-c2ncc(OC)c3c(C(=O)C(=O)N4CCC(=C(C#N)c5ccccc5)CC4)c[nH]c23)cs1` (stereo not shown) [Int-4], the “fusion inhibition activity, in words” value in data set [2] is “highly active”. In addition, in “in vitro” (setting [7]), the CC50 was more than 10 µM.
As for `C#CCOCCOCCOCCOCCN1CCN(CCCN2CCN(CCCNC(=O)c3ncn(-c4ncc(OC)c5c(C(=O)C(=O)N6CCC(=C(C#N)c7ccccc7)CC6)c[nH]c45)n3)CC2)CC1` [Int-22], in the data set “in vitro” (setting [4]), the CC50 was more than 0.5 µM. This compound also returned a TC50 in data set [1] of more than 2000.
In the case of `C#CCOCCOCCNC(=N)NCCNC(=O)c1csc(-c2ncc(OC)c3c(C(=O)C(=O)N4CCC(=C(C#N)c5ccccc5)CC4)c[nH]c23)n1` [Int-3], the CC50 in the data set “in vitro” (setting [5]) and in the data set “in vitro” (setting [6]) was more than 10 µM each time.
With `COc1cnc(-n2cnc(COCC(=O)NCCOCCOCCOCCOCCOCCON)n2)c2[nH]cc(C(=O)C(=O)N3CCN(C(=O)c4ccccc4)CC3)c12` [Int-6], the CC50 in “in vitro” (setting [5]) and in “in vitro” (setting [6]) was more than 0.5 µM each time.
For `C#CCOCCOCCOCCOCCNC(=O)c1cn(-c2ncc(OC)c3c(C(=O)C(=O)N4CCC(=C(C#N)c5ccccc5)CC4)c[nH]c23)nn1` [Int-13], the CC50 in the data set “in vitro” (setting [3]) was more than 10 µM.
As for `C#CCOCCOCCOCCOCCC(=O)N(CCCNC(=O)c1ncn(-c2ncc(OC)c3c(C(=O)C(=O)N4CCC(=C(C#N)c5ccccc5)CC4)c[nH]c23)n1)C(CO)(CO)CO` [Int-17], the CC50 in “in vitro” (setting [3]) is more than 10 µM; in the data set “in vitro” (setting [4]), more than 0.5 µM.
`C#CCOCCOCCNC(=N)NCCNC(=O)c1csc(-c2ncc(OC)c3c(C(=O)C(=O)N4CCN(C(=O)c5ccccc5)CC4)c[nH]c23)n1` [Int-10]: the CC50 in the data set “in vitro” (setting [5]) and in “in vitro” (setting [6]) was more than 10 µM each time.
In the case of `C#CCOCCOCCOCCOCCNC(=O)c1nc(-c2ncc(OC)c3c(C(=O)C(=O)N4CCC(=C(C#N)c5ccccc5)CC4)c[nH]c23)cs1` [Int-1], the CC50 in “in vitro” (setting [5]) and in “in vitro” (setting [6]) was more than 10 µM each time.
